What was measured:
Assay in all cases: relative viability (nuclei count vs DMSO), 5 days (fraction); higher = more cells survive
[1] = test system: NCI-H1734
Procedure, shortened: (§1)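 One day after seeding in 1536-well plates, lung cancer cell lines were dosed by pin tool. Dosing was either single-drug or a fixed anchor-drug dose plus five library-drug doses (not always all listed) in √10 steps. After 5 days, nuclei were stained in one fix-and-stain step and counted on 4× images, and relative viability is the nuclei count of treated wells over that of vehicle wells, given as the median of duplicate plates.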

[2] = test system: NCI-H3122
Procedure, shortened: as §1

[3] = test system: HOP-62
Procedure, shortened: as §1

[4] = test system: NCI-H2126
Procedure, shortened: as §1

[5] = test system: 201T
Procedure, shortened: as §1

[6] = test system: NCI-H1755
Procedure, shortened: as §1

[7] = test system: ChaGo-K-1
Procedure, shortened: as §1

[8] = test system: NCI-H2009
Procedure, shortened: as §1

[9] = test system: NCI-H322M
Procedure, shortened: as §1

[10] = test system: LK-2
Procedure, shortened: as §1

[11] = test system: NCI-H2170
Procedure, shortened: as §1

[12] = test system: H3255
Procedure, shortened: as §1

[13] = test system: NCI-H2087
Procedure, shortened: as §1

[14] = test system: LXF-289
Procedure, shortened: as §1

[15] = test system: NCI-H596
Procedure, shortened: as §1

[16] = test system: CAL-12T
Procedure, shortened: as §1

[17] = test system: ABC-1
Procedure, shortened: as §1

[18] = test system: NCI-H441
Procedure, shortened: as §1

[19] = test system: SK-MES-1
Procedure, shortened: as §1

[20] = test system: PC-14
Procedure, shortened: as §1

[21] = test system: EMC-BAC-2
Procedure, shortened: as §1

[22] = test system: NCI-H1651
Procedure, shortened: as §1

[23] = test system: NCI-H647
Procedure, shortened: as §1

O=C(O)CCCCC(CCSCc1ccccc1)SCc1ccccc1 (centres undefined) [CPI-613] + Cc1cc(Nc2cc(N3CCN(C)CC3)nc(Sc3ccc(NC(=O)C4CC4)cc3)n2)n[nH]1 [Tozasertib] (partner 0.1 µM)
relative viability ([1]; first compound 5 µM): 0.235 | relative viability ([1]; first compound 15.81 µM): 0.24 | relative viability ([1]; first compound 50 µM): 0.291 | relative viability ([1]; first compound 158.11 µM): 0.152 | relative viability ([1]; first compound 500 µM): 0.118 | relative viability ([2]; first compound 5 µM): 0.357 | relative viability ([2]; first compound 15.81 µM): 0.363 | relative viability ([2]; first compound 50 µM): 0.348 | relative viability ([2]; first compound 158.11 µM): 0.211 | relative viability ([2]; first compound 500 µM): 0.0108 | relative viability ([3]; first compound 5 µM): 0.383 | relative viability ([3]; first compound 15.81 µM): 0.305 | relative viability ([3]; first compound 50 µM): 0.286 | relative viability ([3]; first compound 158.11 µM): 0.191 | relative viability ([3]; first compound 500 µM): 0.0544 | relative viability ([4]; first compound 5 µM): 0.775 | relative viability ([4]; first compound 15.81 µM): 0.778 | relative viability ([4]; first compound 50 µM): 0.817 | relative viability ([4]; first compound 158.11 µM): 0.281 | relative viability ([4]; first compound 500 µM): 0.0758 | relative viability ([5]; first compound 5 µM): 0.913 | relative viability ([5]; first compound 15.81 µM): 0.846 | relative viability ([5]; first compound 50 µM): 0.8 | relative viability ([5]; first compound 158.11 µM): 0.443 | relative viability ([5]; first compound 500 µM): 0.209 | relative viability ([6]; first compound 5 µM): 0.558 | relative viability ([6]; first compound 15.81 µM): 0.52 | relative viability ([6]; first compound 50 µM): 0.581 | relative viability ([6]; first compound 158.11 µM): 0.402 | relative viability ([6]; first compound 500 µM): 0.356 | relative viability ([7]; first compound 5 µM): 0.207 | relative viability ([7]; first compound 15.81 µM): 0.185 | relative viability ([7]; first compound 50 µM): 0.234 | relative viability ([7]; first compound 158.11 µM): 0.148 | relative viability ([7]; first compound 500 µM): 0.16 | relative viability ([8]; first compound 5 µM): 0.67 | relative viability ([8]; first compound 15.81 µM): 0.696 | relative viability ([8]; first compound 50 µM): 0.699 | relative viability ([8]; first compound 158.11 µM): 0.136 | relative viability ([8]; first compound 500 µM): 0.0212 | relative viability ([9]; first compound 5 µM): 0.499 | relative viability ([9]; first compound 15.81 µM): 0.452 | relative viability ([9]; first compound 50 µM): 0.499 | relative viability ([9]; first compound 158.11 µM): 0.25 | relative viability ([9]; first compound 500 µM): 0.0634 | relative viability ([10]; first compound 5 µM): 0.173 | relative viability ([10]; first compound 15.81 µM): 0.162 | relative viability ([10]; first compound 50 µM): 0.189 | relative viability ([10]; first compound 158.11 µM): 0.181 | relative viability ([10]; first compound 500 µM): 0.139 | relative viability ([11]; first compound 5 µM): 0.732 | relative viability ([11]; first compound 15.81 µM): 0.55 | relative viability ([11]; first compound 50 µM): 0.694 | relative viability ([11]; first compound 158.11 µM): 0.347 | relative viability ([11]; first compound 500 µM): 0.183 | relative viability ([12]; first compound 5 µM): 0.529 | relative viability ([12]; first compound 15.81 µM): 0.615 | relative viability ([12]; first compound 50 µM): 0.579 | relative viability ([12]; first compound 500 µM): 0.753 | relative viability ([13]; first compound 5 µM): 0.316 | relative viability ([13]; first compound 15.81 µM): 0.256 | relative viability ([13]; first compound 50 µM): 0.21 | relative viability ([13]; first compound 158.11 µM): 0.0949 | relative viability ([13]; first compound 500 µM): 0.0489 | relative viability ([14]; first compound 5 µM): 0.178 | relative viability ([14]; first compound 15.81 µM): 0.142 | relative viability ([14]; first compound 50 µM): 0.176 | relative viability ([14]; first compound 158.11 µM): 0.0521 | relative viability ([14]; first compound 500 µM): 0.0406 | relative viability ([15]; first compound 5 µM): 1.08 | relative viability ([15]; first compound 15.81 µM): 0.923 | relative viability ([15]; first compound 50 µM): 0.966 | relative viability ([15]; first compound 158.11 µM): 0.595 | relative viability ([15]; first compound 500 µM): 0.0638 | relative viability ([16]; first compound 5 µM): 0.284 | relative viability ([16]; first compound 15.81 µM): 0.253 | relative viability ([16]; first compound 50 µM): 0.256 | relative viability ([16]; first compound 158.11 µM): 0.0605 | relative viability ([16]; first compound 500 µM): 0.0057 | relative viability ([17]; first compound 5 µM): 0.215 | relative viability ([17]; first compound 15.81 µM): 0.189 | relative viability ([17]; first compound 50 µM): 0.189 | relative viability ([17]; first compound 158.11 µM): 0.179 | relative viability ([17]; first compound 500 µM): 0.207 | relative viability ([18]; first compound 5 µM): 0.704 | relative viability ([18]; first compound 15.81 µM): 0.633 | relative viability ([18]; first compound 50 µM): 0.649 | relative viability ([18]; first compound 158.11 µM): 0.247 | relative viability ([18]; first compound 500 µM): 0.0826 | relative viability ([19]; first compound 5 µM): 0.895 | relative viability ([19]; first compound 15.81 µM): 0.783 | relative viability ([19]; first compound 50 µM): 0.753 | relative viability ([19]; first compound 158.11 µM): 0.138 | relative viability ([19]; first compound 500 µM): 0.106 | relative viability ([20]; first compound 5 µM): 0.556 | relative viability ([20]; first compound 15.81 µM): 0.531 | relative viability ([20]; first compound 50 µM): 0.553 | relative viability ([20]; first compound 158.11 µM): 0.502 | relative viability ([20]; first compound 500 µM): 0.536 | relative viability ([21]; first compound 5 µM): 0.333 | relative viability ([21]; first compound 15.81 µM): 0.287 | relative viability ([21]; first compound 50 µM): 0.284 | relative viability ([21]; first compound 158.11 µM): 0.124 | relative viability ([21]; first compound 500 µM): 0.0704 | relative viability ([22]; first compound 5 µM): 0.705 | relative viability ([22]; first compound 15.81 µM): 0.588 | relative viability ([22]; first compound 50 µM): 0.77 | relative viability ([22]; first compound 158.11 µM): 0.275 | relative viability ([22]; first compound 500 µM): 0.109 | relative viability ([23]; first compound 5 µM): 0.384 | relative viability ([23]; first compound 15.81 µM): 0.244 | relative viability ([23]; first compound 50 µM): 0.286 | relative viability ([23]; first compound 158.11 µM): 0.0859 | relative viability ([23]; first compound 500 µM): 0.021
